Measurements as given in US7815900B1, “Use of C3-C5 monosaccharides to protect keratinous fibers” (L'Oréal S.A., priority 2000, dated 2010).

Columns and labels:
[1] = DSC doublet peak area (α-structure) of hair after heat cycles; conditions: for Doublet Peak Area: bleached/permed hair after 12 heat cycles, 0.06 M solutions
Procedure: Normal blonde hair was bleached with Clairol Basic White Bleach (40 volume H2O2) for 20 min at standard room temperature and humidity. The bleached swatches were rinsed with tap water, and soaked in an excess of deionized water for 2 hours. The swatches were air-dried and equilibrated for 48 hours prior to further treatment. Some of the bleached swatches were subsequently “permed” using a Reforming Lotion (10% TGA, pH 8.8, 20 minutes) and then neutralized with 2% H2O2, pH 3 (5 minutes). The bleached/permed swatches were rinsed with tap water, and soaked in an excess of deionized water for 2 hours. The swatches were air-dried and equilibrated for 48 hours prior to further treatment. The swatches that were heat treated were treated with 0.06M solutions of hexoses and pentoses for 10 min at 45° C. and then were heated for 12 cycles. The swatches were rinsed after the heat application. In the DSC tests, finely cut hair (4-5 mg) was crimped in an aluminum pan that was punctured prior to each run. The samples were heated from 25° C. to 300° C., at a scanning rate of 20° C./min, with 5 runs per treatment. The results were averaged. Normal blonde hair was divided in two batches. The hair from the first batch was bleached with Clairol Basic White Bleach, 40 volume H2O2, for 20 min at room temperature and humidity. The hair from the second batch was first bleached as above, and then permed: Reforming lotion-10% Thioglycolic acid, pH 8.8, 20 min; neutralizer-2% hydrogen peroxide, 5 min. The oxidatively damaged hair was equilibrated for 24 hours prior to further testing. Both the bleached and the bleached/permed hair were subjected to heat treatment, as in Example 2. The heat treatment experiment involved 12 heat cycles including application of sugar or control solution before each heat application, and rinsing after the heat application. Deionized water was used as a control treatment. After the heat experiment, the hair was rinsed in water, air-dried, and equilibrated for 24 h in the humidity chamber at 25° C. and 50% RH prior to further testing. The effect of the hexoses vs. pentoses on the dry tensile strength (INSTRON) and the alpha-structure (doublet peak area, DSC) was tested on the bleached hair (Table 13). The effect of a hexose (D-glucose) vs. a pentose (D-Xylose) on wet tensile strength (DIA-STRON) was tested both on the bleached and the bleached/permed hair (Table 14). Application of 0.06M solutions of pentoses protected the bleached and the bleached/permed hair against thermal damage (α-structure; wet and dry tensile strength).

[2] = Protein loss from hair in water; conditions: bleached hair treated 5 times (1% solutions; Xylo-Biose Syrup 1.5%), then 1 h at 45° C. in deionized water
Procedure: XyloBiose Syrup is a raw material that contains about 15 wt % of xylobiose (dimer) and about 12 wt % of xylose. Xylo-Oligo 95P is a raw material containing about 22 wt % of xylobiose. Bleached hair was rinsed and blot-dried with a paper-towel. The treatment solution was then applied to the hair for 10 min at 45° C., and the hair was blow-dried. The procedure was repeated 5 times. Each of the following solutions was tested: • 1% D-Xylose • 1% Xylo-Oligo 95P • 1.5% XyloBiose Syrup • deionized water-control treatment
Following blow drying, a hair swatch (0.5 g) was immersed in 25 mL of deionized water for 1 h at 45° C. and the water was analyzed for the protein content. Id.

[3] = Tensile strength (work to break) of relaxed hair after treatment; conditions: relaxed ethnic hair, 10 min at 45° C.
Procedure: (§1) Kinky hair was relaxed using 2.5% sodium hydroxide (20 min at room temperature). The hair was thoroughly rinsed with water, and a treatment solution was applied for 10 min at 45° C. Each of the following treatment solutions were tested: a) 1% D-xylose, b) 5% D-xylose, and c) deionized water-control treatment.

[4] = DSC double peak area of relaxed hair after treatment; conditions: for Double Peak Area: relaxed ethnic hair, 10 min at 45° C.
Procedure: as §1

[5] = Hair chemical composition (lysine, arginine) after heat cycles; conditions: 1.0% solution
Procedure: The repairing of the damaged hair by pentoses is further supported by changes in the hair chemical composition that are observed when the hair was treated with pentose solutions, followed by heat application. Specifically, the amounts of lysine and arginine decreased, as compared to the hair treated with water (Table 19). The change in the lysine/arginine content, in conjunction with the decreased extension to break, appears to indicate that some cross-linking processes occur when the hair is heated in the presence of pentoses.

[6] = Cuticle loss estimated by UV transmittance of suspension; conditions: relaxed ethnic hair, greater transmittance = less cuticle loss
Procedure: as §1
The cuticle loss was estimated as follows. The relaxed/treated hair (0.5 g) was immersed in 2.5 mL deionized water for 15 min at 45° C. The hair was removed and UV transmittance of the remaining cloudy suspension was determined. The greater the transmittance, the less material is suspended, and therefore, the less damage to the hair.

[7] = bleached/permed hair after 12 cycles at 130° C.

| Structure (SMILES) | Doublet Peak Area [1] | Protein loss [2] | Work to Break ([3]; 1% solution) | Work to Break ([3]; 5% solution) | Double Peak Area ([4]; 1% solution) | Double Peak Area ([4]; 5% solution) | protection of relaxed hair (α-structure, tensile strength, cuticle loss) compared to water, in words ([4]; relaxed kinky hair) | Arginine ([5]; bleached hair after 12 cycles at 130° C.) | Arginine [5, 7] | Lysine [5, 7] | Normalized area ([1]; bleached/permed hair, 12 heat cycles, 0.06 M) | Transmittance, at 600 nm ([6]; 1% solution) | Transmittance, at 600 nm ([6]; 5% solution) |
| --- | --- | --- | --- | --- | --- | --- | --- | --- | --- | --- | --- | --- | --- |
| O=C[C@H](O)[C@@H](O)[C@H](O)[C@H](O)CO [D-Glucose, reference compound] | 4.96 +/− 0.32 J/g hair | – | – | – | – | – | – | – | – | – | – | – | – |
| O=C[C@H](O)[C@@H](O)[C@H](O)CO [D-Xylose] | 9.78 +/− 1.48 J/g hair | 200.9 +/− 36.5 microgram/g hair | 749 +/− 151 J/m^2 | 1,200 +/− 222 J/m^2 | 14.10 +/− 2.52 J/g hair | 21.35 +/− 19.02 J/g hair | protected | 8.0 +/− 0.1 wt % | 7.2 +/− 0.1 wt % | 1.6 +/− 0.1 wt % | 9.78 +/− 1.48 J/g hair | 0.9545 | 0.9339 |
